Results reported in patent US20080194646A1, “Methods For Avoiding Edema in the Treatment of Metabolic, Inflammatory, and Cardiovascular Disorders” (priority 2005, published 2008).

Columns and labels:
C57BL/6j ob/ob Mice [1] = assay: glucose lowering activity of halofenate analogs in ob/ob mice (Example 14); format: in vivo; settings: for plasma glucose concentrations vs vehicle: Student unpaired t-test; for Glucose 6 hours / Glucose 30 hours / Glucose 54 hours: plasma glucose; for Predose Glucose: baseline before dosing
Method: Male, 8-9 weeks old, C57BL/6J ob/ob mice were purchased from The Jackson Laboratory (Bar Harbor, Me., USA). Animals were housed (4-5 mice/cage) under standard laboratory conditions at 22±3° C. temperature and 50±20% relative humidity, and were maintained on a diet of Purina rodent chow and water ad libitum. Prior to treatment, blood was collected from the tail vein of each animal. Mice that had non-fasting plasma glucose levels between 250 and 500 mg/dl were used. Each treatment group consisted of 8-10 mice that were distributed so that the mean glucose levels were equivalent in each group at the start of the study. Mice were dosed orally by gavage once a day for 1-3 days with either vehicle, (−) halofenic acid, (+) analog 14, 29, 33, 34, 35, 36, 37, or 38 at 125 mg/kg or (−) analog 29, 36, 37 or 38 at 150 mg/kg. Compounds were delivered in a liquid formulation containing 5% (v/v) dimethyl sulfoxide (DMSO), 1% (v/v) tween 80 and 0.9% (w/v) methylcellulose. The gavage volume was 10 ml/kg. Blood samples were taken at 6 hours after the each dose and analyzed for plasma glucose. Food intake and body weight were measured daily. Plasma glucose concentrations were determined colorimetrically using glucose oxidase method (Sigma Chemical Co, St. Louis, Mo., USA). Significant difference between groups (comparing drug-treated to vehicle-treated) was evaluated using the Student unpaired t-test.

C57BL/6j ob/ob Mice [2] = assay: anti-diabetic activity in C57BL/6j ob/ob mice (Example 20); format: in vivo; settings: oral gavage once a day for 1-4 days; for minimal effective dose: Mus musculus, glucose lowering, plasma glucose 6 hours after each dose, read-out: Potency
Method: The anti-diabetic activities of the compounds were evaluated in the C57BL/6j ob/ob Mice model. Male, 7-9 weeks old, C57BL/6J ob/ob mice were purchased from The Jackson Laboratory (Bar Harbor, Me., USA). Animals were housed (4-5 mice/cage) under standard laboratory conditions at 22±3° C. temperature and 50±20% relative humidity, and were maintained on a diet of Purina rodent chow and water ad libitum. Prior to treatment, blood was collected from the tail vein of each animal. Mice that had non-fasting plasma glucose levels between 250 and 500 mg/dl were used. Each treatment group consisted of 8-10 mice that were distributed so that the mean glucose levels were equivalent in each group at the start of the study. Mice were dosed orally by gavage once a day for 1-4 days with vehicle and one or more dose of test compound at a dose ranging from 5 to 125 mg/kg. Compounds were delivered in a liquid formulation containing 5% (v/v) dimethyl sulfoxide (DMSO), 1% (v/v) Tween 80® and 0.9% (w/v) methylcellulose. The gavage volume was 10 ml/kg. […] Food intake and body weight were measured daily. Plasma glucose concentrations were determined colorimetrically using a commercial glucose oxidase method (Sigma Chemical Co, St. Louis, Mo., USA). Significant difference between groups (comparing drug-treated to vehicle-treated) was evaluated using the Student unpaired t-test. Table 1 provides the relative potency of some selected compounds of the invention.

[3] = 125 mg/kg oral gavage once a day for 1-3 days
[4] = 125 mg/kg oral gavage once a day
[5] = group later dosed 125 mg/kg orally
[6] = 150 mg/kg oral gavage, single dose
[7] = group later dosed 150 mg/kg orally

## CC(=O)NCCOC(=O)C(Oc1cccc(C(F)(F)F)c1)c1ccc(F)cc1 (racemic) [(±)Analog 14]
C57BL/6j ob/ob Mice [1]; [3]
  plasma glucose concentrations vs vehicle: significantly lowered plasma glucose concentrations at 6, 30 and 54 hours
C57BL/6j ob/ob Mice [1]; [4]
  Glucose 6 hours: 328.9 ± 34.1 mg/dL
  Glucose 30 hours: 267.0 ± 21.3 mg/dL
  Glucose 54 hours: 293.0 ± 29.4 mg/dL
C57BL/6j ob/ob Mice [1]; [5]
  Predose Glucose: 361.0 ± 17.1 mg/dL

## CC(=O)NCCOC(=O)C(Oc1cccc(C(F)(F)F)c1)c1ccc(Br)cc1 (racemic) [(±)Analog 29]
C57BL/6j ob/ob Mice [1]; [3]
  plasma glucose concentrations vs vehicle: significantly lowered plasma glucose concentrations at 6, 30 and 54 hours
C57BL/6j ob/ob Mice [1]; [4]
  Glucose 6 hours: 299.7 ± 24.5 mg/dL
  Glucose 30 hours: 237.4 ± 14.9 mg/dL
  Glucose 54 hours: 293.3 ± 9.7 mg/dL
C57BL/6j ob/ob Mice [1]; [5]
  Predose Glucose: 387.1 ± 16.0 mg/dL

## CCCCOC(=O)C(Oc1cccc(C(F)(F)F)c1)c1ccc(Cl)cc1 (racemic) [(±)Analog 33]
C57BL/6j ob/ob Mice [1]; [3]
  plasma glucose concentrations vs vehicle: significantly lowered plasma glucose concentrations at 6 and 54 hours
C57BL/6j ob/ob Mice [1]; [4]
  Glucose 6 hours: 227.5 ± 13.2 mg/dL
  Glucose 30 hours: 298.0 ± 15.3 mg/dL
  Glucose 54 hours: 286.6 ± 9.9 mg/dL
C57BL/6j ob/ob Mice [1]; [5]
  Predose Glucose: 292.0 ± 19.1 mg/dL

## CN(C)CCOC(=O)C(Oc1cccc(C(F)(F)F)c1)c1ccc(Cl)cc1 (racemic) [(±)Analog 35]
C57BL/6j ob/ob Mice [1]; [3]
  plasma glucose concentrations vs vehicle: significantly lowered plasma glucose concentrations at 30 and 54 hours
C57BL/6j ob/ob Mice [1]; [4]
  Glucose 6 hours: 319.6 ± 26.7 mg/dL
  Glucose 30 hours: 276.8 ± 17.6 mg/dL
  Glucose 54 hours: 286.2 ± 31.5 mg/dL
C57BL/6j ob/ob Mice [1]; [5]
  Predose Glucose: 387.0 ± 18.0 mg/dL

## O=C(NCCOC(=O)C(Oc1cccc(C(F)(F)F)c1)c1ccc(Cl)cc1)c1ccccc1 (racemic) [(±)Analog 36]
C57BL/6j ob/ob Mice [1]; [3]
  plasma glucose concentrations vs vehicle: significantly lowered plasma glucose concentrations at 30 and 54 hours
C57BL/6j ob/ob Mice [1]; [4]
  Glucose 6 hours: 300.5 ± 27.3 mg/dL
  Glucose 30 hours: 249.7 ± 8.6 mg/dL
  Glucose 54 hours: 272.2 ± 18.4 mg/dL
C57BL/6j ob/ob Mice [1]; [5]
  Predose Glucose: 329.7 ± 17.6 mg/dL

## NC(=O)COC(=O)C(Oc1cccc(C(F)(F)F)c1)c1ccc(Cl)cc1 (racemic) [(±)Analog 37]
C57BL/6j ob/ob Mice [1]; [3]
  plasma glucose concentrations vs vehicle: significantly lowered plasma glucose concentrations at 54 hours
C57BL/6j ob/ob Mice [1]; [4]
  Glucose 6 hours: 345.4 ± 19.7 mg/dL
  Glucose 30 hours: 312.5 ± 21.7 mg/dL
  Glucose 54 hours: 285.1 ± 14.7 mg/dL
C57BL/6j ob/ob Mice [1]; [5]
  Predose Glucose: 387.4 ± 18.8 mg/dL

## CN(C)C(=O)COC(=O)C(Oc1cccc(C(F)(F)F)c1)c1ccc(Cl)cc1 (racemic) [(±)Analog 38]
C57BL/6j ob/ob Mice [1]; [3]
  plasma glucose concentrations vs vehicle: significantly lowered plasma glucose concentrations at 6, 30 and 54 hours
C57BL/6j ob/ob Mice [1]; [4]
  Glucose 6 hours: 303.2 ± 18.2 mg/dL
  Glucose 30 hours: 245.6 ± 15.6 mg/dL
  Glucose 54 hours: 243.1 ± 10.6 mg/dL
C57BL/6j ob/ob Mice [1]; [5]
  Predose Glucose: 329.4 ± 18.9 mg/dL

## O=C(O)C(Oc1ccc(C(F)(F)F)cc1)c1cccc(C(F)(F)F)c1 (racemic) [Compound 39, (4-trifluoromethyl-phenoxy)-(3-trifluoromethyl-phenyl)-acetic acid]
C57BL/6j ob/ob Mice [2]
  minimal effective dose: ≤ 125 mg/kg
  Insulin Level compared with vehicle: Lower

## CC(=O)NCCOC(=O)C(Oc1cccc(C(F)(F)F)c1)c1ccc(Br)cc1 (single isomer, unassigned; (-)) [(−)Analog 29]
C57BL/6j ob/ob Mice [1]; [6]
  plasma glucose concentrations vs vehicle: significantly reduced plasma glucose concentrations at 6 hours
  Glucose 6 hours: 333.5 ± 16.1 mg/dL
C57BL/6j ob/ob Mice [1]; [7]
  Predose Glucose: 372.2 ± 17.1 mg/dL

## O=C(NCCOC(=O)C(Oc1cccc(C(F)(F)F)c1)c1ccc(Cl)cc1)c1ccccc1 (single isomer, unassigned; (-)) [(−)Analog 36]
C57BL/6j ob/ob Mice [1]; [6]
  plasma glucose concentrations vs vehicle: significantly reduced plasma glucose concentrations at 6 hours
  Glucose 6 hours: 281.1 ± 18.2 mg/dL
C57BL/6j ob/ob Mice [1]; [7]
  Predose Glucose: 373.2 ± 15.5 mg/dL

## NC(=O)COC(=O)C(Oc1cccc(C(F)(F)F)c1)c1ccc(Cl)cc1 (single isomer, unassigned; (-)) [(−)Analog 37]
C57BL/6j ob/ob Mice [1]; [6]
  plasma glucose concentrations vs vehicle: significantly reduced plasma glucose concentrations at 6 hours
  Glucose 6 hours: 271.7 ± 22.5 mg/dL
C57BL/6j ob/ob Mice [1]; [7]
  Predose Glucose: 373.4 ± 16.1 mg/dL

## CN(C)C(=O)COC(=O)C(Oc1cccc(C(F)(F)F)c1)c1ccc(Cl)cc1 (single isomer, unassigned; (-)) [(−)Analog 38]
C57BL/6j ob/ob Mice [1]; [6]
  plasma glucose concentrations vs vehicle: significantly reduced plasma glucose concentrations at 6 hours
  Glucose 6 hours: 251.2 ± 23.6 mg/dL
C57BL/6j ob/ob Mice [1]; [7]
  Predose Glucose: 373.4 ± 16.1 mg/dL

## O=C(O)C(Oc1ccc(C(F)(F)F)cc1)c1cccc(C(F)(F)F)c1 (stereo not drawn) [(+)−39, (4-trifluoromethyl-phenoxy)-(3-trifluoromethyl-phenyl)-acetic acid]
C57BL/6j ob/ob Mice [2]
  minimal effective dose: ≤ 125 mg/kg
